According to patent publication US20260226060A1, “SALTS AND CRYSTALLINE FORMS OF COMPOUND A, METHODS OF PREPARATION, AND USES THEREOF” (SHENZHEN NEWDEL BIOTECH CO., LTD., priority 2023, published 2026):
Where two headings read alike, the source gives them in different places.

Legend:
[1] = Dynamic vapor sorption (DVS) hygroscopicity; format: physicochemical
Experimental: The water vapor sorption/desorption data of the samples were collected on a dynamic vapor sorption instrument (proUmid GmbH & Co. KG, Germany). Approximately 50-70 mg of sample was placed in a sample pan previously tared and the weight of the sample was measured accurately.

[2] = Short-term physical stability of anhydrous crystal forms (40° C./75% RH, open, 1 day; XRPD); format: physicochemical
Source text: In addition to the mesylate crystalline form I, the other anhydrous crystalline forms were stable under high humidity conditions.

[3] = Solubility analysis in biological solvents (SGF, FaSSIF, FeSSIF) and water, with pH and XRPD of residual solid; format: physicochemical; conditions: for Solubility: 37° C., target 5 mg/mL
Experimental: (§1) HPLC analysis was performed by using an Agilent HPLC 1260 series instrument and the HPLC methods used for solubility and stability determinations were shown in Tables 33 and 34, respectively.

[4] = Solid state stability at 60° C. (closed) and 40° C./75% RH (open), XRPD and HPLC purity; format: physicochemical
Experimental: (closed) and 40° C./75 RH (open) for 14 days, XRPD analysis and purity analysis were performed at various points of time, and solid-state stability was evaluated.
as §1

[5] = Mechanical grinding stability (XRPD); format: physicochemical; conditions: ground in a mortar 5 minutes, samples at 2 and 5 minutes
[6] = Tableting stability (40 Mpa, 1 min; XRPD); format: physicochemical
[7] = Polymorph screening: evaporating crystallization; format: physicochemical; conditions: for Results (quick volatilization −1 h) Wet sample: saturated solution (50° C. to room temperature)
[8] = Polymorph screening: cooling crystallization; format: physicochemical; conditions: for solid obtained by cooling crystallization: solution in methanol
Experimental: It was filtered through a microfilm into clear vials. The solution was divided into two equal parts, one part of filtrate was placed in a refrigerator (5° C.) for rapid cooling, and the other part of filtrate was placed in a heating metal module with a power off and naturally cooled to room temperature.

[9] = Polymorph screening: antisolvent precipitation; format: physicochemical; conditions: for Results Wet sample: Vsolvent/Vanti-solvent 1/10
Experimental: An anti-solvent was gradually added thereto until a solid precipitated or a solvent volume of was added.

[10] = Polymorph screening: trituration for 3 or 7 days at room temperature or 50° C.; format: physicochemical
physchem = conditions: water, thermodynamic from solid
[11] = 60° C./closed and 40° C./75% RH, 7 days

## Cc1c(C#Cc2cnc3ccc(N4CCC(O)CC4)nn23)cccc1C(=O)Nc1cc(Cl)cc(C(F)(F)F)c1 [Fumarate crystalline form I]
[1]
  crystalline form after DVS analysis (XRPD): remained unchanged
  hygroscopicity (DVS): substantially non-hygroscopic
[1]; 80% RH
  DVS The weight gains by vapor sorption %: 0.2, 0.2%
[1]; 90% RH
  DVS The weight gains by vapor sorption %: 0.2, 0.2%
[1]; 90% RH, listed as fumarate crystalline form I
  DVS The weight gains by vapor sorption %: 0.2/0.2%
[1]; listed as fumarate crystalline form I
  hygroscopicity (DVS): almost non-hygroscopic
[1]; listed as fumarate form crystalline I
  hygroscopicity (DVS): almost non-hygroscopic
[2]
  XPRD Results after short-term physical stability: unchanged
[3]; FaSSIF (medium pH 6.5), 0.5 h
  pH in solubility analysis: 6.3
[3]; FaSSIF (medium pH 6.5), 2 h
  pH in solubility analysis: 6.2
[3]; FaSSIF (medium pH 6.5), 24 h
  pH in solubility analysis: 6.0
[3]; FaSSIF, 0.5 h
  XRPD of residual solid in solubility analysis: unchanged
  Solubility: 0.011 mg/mL
[3]; FaSSIF, 0.5 h, listed as fumarate crystalline form I
  Solubility: 0.011/0.011/ mg/mL
[3]; FaSSIF, 2 h
  Solubility: 0.011 mg/mL
[3]; FaSSIF, 2 h, listed as fumarate crystalline form I
  Solubility: 0.011/0.011/ mg/mL
[3]; FaSSIF, 24 h
  XRPD of residual solid in solubility analysis: unchanged
  Solubility: 0.022 mg/mL
[3]; FeSSIF (medium pH 5.0), 0.5 h
  pH in solubility analysis: 5.0
[3]; FeSSIF (medium pH 5.0), 2 h
  pH in solubility analysis: 5.0
[3]; FeSSIF (medium pH 5.0), 24 h
  pH in solubility analysis: 5.0
[3]; FeSSIF, 0.5 h
  Solubility: 0.197 mg/mL
[3]; FeSSIF, 0.5 h, listed as fumarate crystalline form I
  Solubility: 0.197 mg/mL
[3]; FeSSIF, 2 h
  Solubility: 0.175 mg/mL
[3]; FeSSIF, 2 h, listed as fumarate crystalline form I
  Solubility: 0.175 mg/mL
[3]; FeSSIF, 24 h
  XRPD of residual solid in solubility analysis: unchanged
  Solubility: 0.530 mg/mL
[3]; SGF (medium pH 1.2), 0.5 h
  pH in solubility analysis: 1.3
[3]; SGF (medium pH 1.2), 2 h
  pH in solubility analysis: 1.4
[3]; SGF (medium pH 1.2), 24 h
  pH in solubility analysis: 1.3
[3]; SGF, 0.5 h
  XRPD of residual solid in solubility analysis: unchanged
  Solubility: <LOD
[3]; SGF, 0.5 h, listed as fumarate crystalline form I
  Solubility: <LOD/<LOD/
[3]; SGF, 2 h
  Solubility: <LOD
[3]; SGF, 2 h, listed as fumarate crystalline form I
  Solubility: <LOD/<LOD/
[3]; SGF, 24 h
  XRPD of residual solid in solubility analysis: unchanged
  Solubility: <LOD
[3]; summary over water, SGF, FaSSIF, FeSSIF
  Solid form of residual solids in solubility analysis: remained unchanged
[3]; water (medium pH 6.6), 0.5 h
  pH in solubility analysis: 4.6
[3]; water (medium pH 6.6), 2 h
  pH in solubility analysis: 4.3
[3]; water (medium pH 6.6), 24 h
  pH in solubility analysis: 4.2
[3]; water, 0.5 h
  XRPD of residual solid in solubility analysis: unchanged
  Solubility: <LOD
[3]; water, 0.5 h, listed as fumarate crystalline form I
  Solubility: <LOD/<LOD/
[3]; water, 2 h
  Solubility: <LOD
[3]; water, 2 h, listed as fumarate crystalline form I
  Solubility: <LOD/<LOD/
[3]; water, 24 h
  XRPD of residual solid in solubility analysis: unchanged
  Solubility: <LOD
[4]; 0 d
  Purity in stability evaluation: 99.14 Area %
[4]; 60° C./Closed and 40° C./75% RH (Open), 14 days
  Solid state stability-14 days: physically and chemically stable
[4]; [11]
  change in crystalline form, 7 days: No change in crystalline form was observed
  chemical purity, 7 days: remained unchanged
  solid stability, 7 days: physicochemically stable
[4]; 7 d-40° C./75% RH
  Purity in stability evaluation: 99.13 Area %
  XRPD in stability evaluation: unchanged
[4]; 7 d-60° C./capped
  Purity in stability evaluation: 99.14 Area %
  XRPD in stability evaluation: unchanged
[4]; 14 d-40° C./75% RH
  Purity in stability evaluation: 99.13 Area %
  XRPD in stability evaluation: unchanged
[4]; 14 d-60° C./capped
  Purity in stability evaluation: 99.13 Area %
  XRPD in stability evaluation: unchanged
[5]
  crystal form after grinding (XRPD): not changed
  crystallinity after grinding (XRPD): not obviously reduced
[6]
  crystalline form after tableting (XRPD): unchanged
  crystallinity after tableting (XRPD): slightly reduced
[7]; quick and slow evaporation
  new crystalline form by evaporating crystallization (XRPD): no new crystalline form was obtained
[7]; solvent EtOH, batch 071-A2
  Results (quick volatilization −1 h) Wet sample: amorphous
[7]; solvent MeOH, batch 071-A1
  Results (quick volatilization −1 h) Wet sample: free base form 1
[8]
  new crystalline form by cooling crystallization (XRPD): no new crystalline form was obtained
[8]; rapid cooling (5° C.)
  solid obtained by cooling crystallization: dissociated into free base form 1
[8]; slow cooling to room temperature
  solid obtained by cooling crystallization: into free base form 2
[9]; from MeOH, THF or DMSO
  new crystalline form by antisolvent precipitation (XRPD): no new crystalline form was obtained
[9]; solvent DMSO (100 mg/mL, 0.2 mL), anti-solvent EA, batch 073-C1
  Results Wet sample: clear solution
[9]; solvent DMSO (100 mg/mL, 0.2 mL), anti-solvent IPAC, batch 073-C2
  Results Wet sample: clear solution
[9]; solvent DMSO (100 mg/mL, 0.2 mL), anti-solvent MTBE, batch 073-C4
  Results Wet sample: clear solution
[9]; solvent MeOH (Saturated, 0.3 mL), anti-solvent MTBE, batch 073-A2
  Results Wet sample: clear solution
[9]; solvent THF (25 mg/mL, 0.4 mL), anti-solvent EA, batch 073-B1
  Results Wet sample: clear solution
[10]; 30 mg/mL suspension, room temperature or 50° C., 3 or 7 days
  new crystalline form by trituration (XRPD): no new fumarate crystalline form was formed
[10]; in alcohol, water, 2-Me-THF, MTBE and acetone
  dissociation on trituration: dissociated into free base crystalline form VII
physchem; Solubility
  Solubility: < 600 µg/mL
physchem; solubility
  Solubility: < 5000 µg/mL
